Legend:
[1] = molecular target: human TREX1 (Homo sapiens (Human), UniProt Q9NSU2); test: TREX1 Exonuclease Assay (human enzyme); assay type: biochemical; settings: human TREX1 0.5 nM, FAM/BHQ1-labeled DNA oligonucleotide
Summary of the method: (§1)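 Human TREX1 (aa 55-297, 0.5 nM) or murine TREX1 (aa 1-242, 1 nM) preincubated 30 min with compound (11-point, 3-fold), then 500 nM FAM/BHQ1-quenched DNA oligo added; 45 min at room temperature in pH 7.5 Tris buffer with 5 mM MgCl2, EDTA-stopped. Fluorescence (ex 485/em 535 nm) fit to four-parameter curve for IC50.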

[2] = molecular target: murine TREX1 (Mus musculus (Mouse), UniProt Q91XB0); test: TREX1 Exonuclease Assay (murine enzyme); assay type: biochemical; settings: murine TREX1 1 nM, FAM/BHQ1-labeled DNA oligonucleotide
Summary of the method: as §1

human TREX1, sequence (Q9NSU2 1-242): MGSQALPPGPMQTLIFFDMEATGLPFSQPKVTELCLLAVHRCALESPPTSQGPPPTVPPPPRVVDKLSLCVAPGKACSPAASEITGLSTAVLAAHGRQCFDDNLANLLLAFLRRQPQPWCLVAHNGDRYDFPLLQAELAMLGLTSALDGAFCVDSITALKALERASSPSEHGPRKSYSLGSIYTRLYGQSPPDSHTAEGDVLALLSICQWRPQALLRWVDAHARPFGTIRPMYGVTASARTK
murine TREX1, sequence (Q91XB0 1-242): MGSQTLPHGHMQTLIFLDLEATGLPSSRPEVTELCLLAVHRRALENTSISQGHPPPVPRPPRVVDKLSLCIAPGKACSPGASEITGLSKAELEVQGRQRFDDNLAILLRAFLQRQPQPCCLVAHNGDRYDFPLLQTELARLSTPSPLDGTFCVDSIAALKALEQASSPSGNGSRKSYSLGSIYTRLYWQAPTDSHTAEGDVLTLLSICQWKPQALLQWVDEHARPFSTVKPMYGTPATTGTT

With N[C@@H]1C[C@H]2C(=O)N([C@H](CCC(=O)O)C(=O)NCc3ccc(Cl)c(Cl)c3)CCC(CCc3ccccc3)N2C1 (some centres unmarked) [Example 14B] the IC50 [1] was < 1000 nM and the IC50 [2] was < 1000 nM.

— US11306098B2, “Substituted pyrrolo[1,2-a]pyrazines and pyrrolo[1,2-a][1,4]diazepines as TREX1 inhibitors” (VENENUM BIODESIGN, LLC, priority 2019, dated 2022)
